Measured values published in patent publication US8022091B2, “Triazole derivative” (Taisho Pharmaceutical Co., Ltd., priority 2006, dated 2011).

target: T1, human Edg-1 (S1P1) (Homo sapiens, UniProt P21453); assay: S1P1 binding assay: inhibition of [33P]-S1P binding to membrane fraction of HEK-293 cells transferred with the human Edg-1 (S1P1) gene; settings: test compound 10 μM; inhibition of [33P]-S1P binding, membrane fraction
T1 construct: expressed in transfected cells; host or cells: HEK-293
Outline: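 With 0.1 nM [33P]-S1P and compound (10^−5M single point, or a concentration range for IC50) in 0.1% DMSO, membrane fractions from human Edg-1-expressing HEK-293 cells were treated for one hour at 30° C in 20 mM Tris-HCl pH 7.4 with NaF, deoxypyridoxine and BSA. Bound label was measured after filtration, with untransfected-cell background subtracted.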

T1 sequence (P21453 whole entry): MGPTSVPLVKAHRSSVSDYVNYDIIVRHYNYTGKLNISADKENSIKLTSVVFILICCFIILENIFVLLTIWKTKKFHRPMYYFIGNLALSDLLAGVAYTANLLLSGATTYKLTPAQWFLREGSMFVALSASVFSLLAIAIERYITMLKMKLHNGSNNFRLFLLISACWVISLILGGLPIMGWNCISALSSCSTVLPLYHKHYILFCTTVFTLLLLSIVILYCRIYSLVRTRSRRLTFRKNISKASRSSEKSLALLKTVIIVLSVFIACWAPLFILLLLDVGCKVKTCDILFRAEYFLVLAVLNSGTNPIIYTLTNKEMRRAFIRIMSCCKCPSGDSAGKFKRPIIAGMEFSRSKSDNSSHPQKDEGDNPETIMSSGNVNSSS

Compared with `CCn1c(Oc2cccc(N3CCN(C)CC3)c2)nnc1[C@@H](C)NS(=O)(=O)c1ccc(Cl)c2nonc12` [Compound 507], `CCn1c(Oc2cccc(N3CCN(C)CC3)c2)nnc1[C@@H](C)NS(=O)(=O)c1c(Cl)ccc2nonc12` [Compound 542] is lower in inhibition at 10 µM: 84.8% for the first, 50.1% for the second.

Going from `CCn1c(Oc2cccc(N3CCN(C)CC3)c2)nnc1[C@@H](C)NS(=O)(=O)c1sc2ccc(Cl)cc2c1C` [Compound 509] to `CCn1c(Oc2cccc(N3CCN(C)CC3)c2)nnc1[C@@H](C)NS(=O)(=O)c1cc(Cl)ccc1Cl` [Compound 511], the inhibition at 10 µM rises from 87% to 98.6%.

Going from `CCn1c(Oc2cccc(N3CCN(C)CC3)c2)nnc1[C@@H](C)NS(=O)(=O)c1cc(C)c(Cl)cc1C` [Compound 510] to `CCn1c(Oc2cccc(N3CCN(C)CC3)c2)nnc1[C@@H](C)NS(=O)(=O)c1cc(C)ccc1C` [Compound 537], the inhibition at 10 µM falls from 114% to 96.7%.

Going from `CCn1c(Oc2cccc(N3CCN(C)CC3)c2)nnc1[C@@H](C)NS(=O)(=O)c1c(Cl)cccc1Cl` [Compound 512] to `CCn1c(Oc2cccc(N3CCN(C)CC3)c2)nnc1[C@@H](C)NS(=O)(=O)c1c(C)cccc1Cl` [Compound 551], the inhibition at 10 µM rises from 60.7% to 76.1%.

First: CCn1c(Oc2cccc(N3CCN(C)CC3)c2)nnc1[C@@H](C)NS(=O)(=O)c1ccc(OC)c(OC)c1 [Compound 513]
Second: CCn1c(Oc2cccc(N3CCN(C)CC3)c2)nnc1[C@@H](C)NS(=O)(=O)c1cc(OC)ccc1OC [Compound 569]
The inhibition at 10 µM of the first is higher: 96.6% for the first, 75% for the second.

First: CCc1ccc(S(=O)(=O)N[C@H](C)c2nnc(Oc3cccc(N4CCN(C)CC4)c3)n2CC)cc1 [Compound 515]
Second: CCCc1ccc(S(=O)(=O)N[C@H](C)c2nnc(Oc3cccc(N4CCN(C)CC4)c3)n2CC)cc1 [Compound 548]
The inhibition at 10 µM of the first is higher: 109% for the first, 96.7% for the second.

Going from `CCn1c(Oc2cccc(N3CCN(C)CC3)c2)nnc1[C@@H](C)NS(=O)(=O)c1ccc(F)cc1` [Compound 516] to `CCn1c(Oc2cccc(N3CCN(C)CC3)c2)nnc1[C@@H](C)NS(=O)(=O)c1ccc(I)cc1` [Compound 525], the inhibition at 10 µM rises from 107% to 111%.

First: CCn1c(Oc2cccc(N3CCN(C)CC3)c2)nnc1[C@@H](C)NS(=O)(=O)c1c(C)cc(C)cc1C [Compound 517]
Second: CCn1c(Oc2cccc(N3CCN(C)CC3)c2)nnc1[C@@H](C)NS(=O)(=O)c1c(C)c(C)cc(C)c1C [Compound 549]
The inhibition at 10 µM of the first is lower: 69.6% for the first, 89.2% for the second.

First: CCn1c(Oc2cccc(N3CCN(C)CC3)c2)nnc1[C@@H](C)NS(=O)(=O)c1ccc(OC)cc1 [Compound 518]
Second: CCn1c(Oc2cccc(N3CCN(C)CC3)c2)nnc1[C@@H](C)NS(=O)(=O)c1ccc(C)cc1 [Compound 528]
The inhibition at 10 µM of the first is higher: 111% for the first, 106% for the second.

First: CCn1c(Oc2cccc(N3CCN(C)CC3)c2)nnc1[C@@H](C)NS(=O)(=O)c1ccc(S(C)(=O)=O)cc1 [Compound 520]
Second: CCn1c(Oc2cccc(N3CCN(C)CC3)c2)nnc1[C@@H](C)NS(=O)(=O)c1ccc(C(C)C)cc1 [Compound 573]
The inhibition at 10 µM of the first is lower: 69.9% for the first, 86.3% for the second.

Going from `CCn1c(Oc2cccc(N3CCN(C)CC3)c2)nnc1[C@@H](C)NS(=O)(=O)c1cccc2ccccc12` [Compound 522] to `CCn1c(Oc2cccc(N3CCN(C)CC3)c2)nnc1[C@@H](C)NS(=O)(=O)CCc1cccc2ccccc12` [Compound 523], the inhibition at 10 µM rises from 98.4% to 114%.

First: CCn1c(Oc2cccc(N3CCN(C)CC3)c2)nnc1[C@@H](C)NS(=O)(=O)c1c(F)c(F)c(F)c(F)c1F [Compound 524]
Second: CCn1c(Oc2cccc(N3CCN(C)CC3)c2)nnc1[C@@H](C)NS(=O)(=O)c1ccc(F)c(F)c1F [Compound 577]
The inhibition at 10 µM of the first is lower: 83% for the first, 92.4% for the second.

Going from `CCn1c(Oc2cccc(N3CCN(C)CC3)c2)nnc1[C@@H](C)NS(=O)(=O)c1cc(Cl)c(Cl)cc1Cl` [Compound 526] to `CCn1c(Oc2cccc(N3CCN(C)CC3)c2)nnc1[C@@H](C)NS(=O)(=O)c1c(Cl)cc(Cl)cc1Cl` [Compound 566], the inhibition at 10 µM falls from 112% to 88.7%.

Going from `CCn1c(Oc2cccc(N3CCN(C)CC3)c2)nnc1[C@@H](C)NS(=O)(=O)c1c(C(C)C)cc(C(C)C)cc1C(C)C` [Compound 527] to `CCn1c(Oc2cccc(N3CCN(C)CC3)c2)nnc1[C@@H](C)NS(=O)(=O)c1c(C)nn(C)c1C` [Compound 544], the inhibition at 10 µM rises from 52.1% to 53.9%.

Going from `CCn1c(Oc2cccc(N3CCN(C)CC3)c2)nnc1[C@@H](C)NS(=O)(=O)c1cccc(C(F)(F)F)c1` [Compound 530] to `CCn1c(Oc2cccc(N3CCN(C)CC3)c2)nnc1[C@@H](C)NS(=O)(=O)c1cccc(C)c1` [Compound 534], the inhibition at 10 µM falls from 115% to 101%.

First: CCn1c(Oc2cccc(N3CCN(C)CC3)c2)nnc1[C@@H](C)NS(=O)(=O)c1ccccc1C [Compound 531]
Second: CCn1c(Oc2cccc(N3CCN(C)CC3)c2)nnc1[C@@H](C)NS(=O)(=O)c1ccccc1Cl [Compound 552]
The inhibition at 10 µM of the first is higher: 100% for the first, 67.2% for the second.

First: CCn1c(Oc2cccc(N3CCN(C)CC3)c2)nnc1[C@@H](C)NS(=O)(=O)c1ccc(OC(F)(F)F)cc1 [Compound 532]
Second: CCn1c(Oc2cccc(N3CCN(C)CC3)c2)nnc1[C@@H](C)NS(=O)(=O)c1ccccc1OC(F)(F)F [Compound 563]
The inhibition at 10 µM of the first is higher: 99.2% for the first, 64.1% for the second.

Compared with `CCn1c(Oc2cccc(N3CCN(C)CC3)c2)nnc1[C@@H](C)NS(=O)(=O)c1ccc2c(c1)CN(C(=O)C(F)(F)F)CC2` [Compound 536], `CCn1c(Oc2cccc(N3CCN(C)CC3)c2)nnc1[C@@H](C)NS(=O)(=O)c1ccc(F)c(F)c1` [Compound 581] is higher in inhibition at 10 µM: 50.3% for the first, 99.9% for the second.

First: CCn1c(Oc2cccc(N3CCN(C)CC3)c2)nnc1[C@@H](C)NS(=O)(=O)c1ccc(-c2csnn2)s1 [Compound 538]
Second: CCn1c(Oc2cccc(N3CCN(C)CC3)c2)nnc1[C@@H](C)NS(=O)(=O)c1ccc(Cl)cc1Cl [Compound 567]
The inhibition at 10 µM of the first is lower: 97.1% for the first, 102% for the second.

Compared with `CCn1c(Oc2cccc(N3CCN(C)CC3)c2)nnc1[C@@H](C)NS(=O)(=O)c1c(C)nn(C)c1Cl` [Compound 540], `CCn1c(Oc2cccc(N3CCN(C)CC3)c2)nnc1[C@@H](C)NS(=O)(=O)c1c(C)noc1C` [Compound 541] is higher in inhibition at 10 µM: 64.3% for the first, 65.5% for the second.

First: CCn1c(Oc2cccc(N3CCN(C)CC3)c2)nnc1[C@@H](C)NS(=O)(=O)c1ccc(C(=O)OC)n1C [Compound 543]
Second: CCn1c(Oc2cccc(N3CCN(C)CC3)c2)nnc1[C@@H](C)NS(=O)(=O)c1ccccc1C(=O)OC [Compound 545]
The inhibition at 10 µM of the first is higher: 112% for the first, 50.7% for the second.

Compared with `CCn1c(Oc2cccc(N3CCN(C)CC3)c2)nnc1[C@@H](C)NS(=O)(=O)c1ccccc1C(F)(F)F` [Compound 546], `CCn1c(Oc2cccc(N3CCN(C)CC3)c2)nnc1[C@@H](C)NS(=O)(=O)c1ccccc1F` [Compound 571] is lower in inhibition at 10 µM: 55.8% for the first, 55.7% for the second.

Compared with `CCn1c(Oc2cccc(N3CCN(C)CC3)c2)nnc1[C@@H](C)NS(=O)(=O)c1cccc(Cl)c1Cl` [Compound 550], `CCn1c(Oc2cccc(N3CCN(C)CC3)c2)nnc1[C@@H](C)NS(=O)(=O)c1cccc(Cl)c1C` [Compound 555] is lower in inhibition at 10 µM: 104% for the first, 102% for the second.

First: CCn1c(Oc2cccc(N3CCN(C)CC3)c2)nnc1[C@@H](C)NS(=O)(=O)c1cc(C(F)(F)F)cc(C(F)(F)F)c1 [Compound 553]
Second: CCn1c(Oc2cccc(N3CCN(C)CC3)c2)nnc1[C@@H](C)NS(=O)(=O)c1c(Cl)cc(C(F)(F)F)cc1Cl [Compound 579]
The inhibition at 10 µM of the first is higher: 107% for the first, 87.6% for the second.

First: CCn1c(Oc2cccc(N3CCN(C)CC3)c2)nnc1[C@@H](C)NS(=O)(=O)c1cc(Cl)cc(Cl)c1 [Compound 554]
Second: CCn1c(Oc2cccc(N3CCN(C)CC3)c2)nnc1[C@@H](C)NS(=O)(=O)c1cccc(Cl)c1 [Compound 572]
The inhibition at 10 µM of the first is higher: 116% for the first, 96.5% for the second.

Going from `CCn1c(Oc2cccc(N3CCN(C)CC3)c2)nnc1[C@@H](C)NS(=O)(=O)c1cccc(OC)c1` [Compound 556] to `CCn1c(Oc2cccc(N3CCN(C)CC3)c2)nnc1[C@@H](C)NS(=O)(=O)c1cc(Br)ccc1OC` [Compound 559], the inhibition at 10 µM falls from 105% to 79.3%.

First: CCn1c(Oc2cccc(N3CCN(C)CC3)c2)nnc1[C@@H](C)NS(=O)(=O)c1cc(F)c(Br)cc1F [Compound 557]
Second: CCn1c(Oc2cccc(N3CCN(C)CC3)c2)nnc1[C@@H](C)NS(=O)(=O)c1cc(F)c(F)cc1Cl [Compound 580]
The inhibition at 10 µM of the first is higher: 107% for the first, 89.2% for the second.

Going from `CCn1c(Oc2cccc(N3CCN(C)CC3)c2)nnc1[C@@H](C)NS(=O)(=O)c1c(C)cc(OC)c(C)c1C` [Compound 558] to `CCn1c(Oc2cccc(N3CCN(C)CC3)c2)nnc1[C@@H](C)NS(=O)(=O)c1c(C)c(C)c(C)c(C)c1C` [Compound 561], the inhibition at 10 µM rises from 64.8% to 92.4%.

Going from `CCn1c(Oc2cccc(N3CCN(C)CC3)c2)nnc1[C@@H](C)NS(=O)(=O)c1cc(F)ccc1C` [Compound 560] to `CCn1c(Oc2cccc(N3CCN(C)CC3)c2)nnc1[C@@H](C)NS(=O)(=O)c1ccc(F)cc1F` [Compound 568], the inhibition at 10 µM falls from 74.4% to 71.1%.

Compared with `CCn1c(Oc2cccc(N3CCN(C)CC3)c2)nnc1[C@@H](C)NS(=O)(=O)c1cc(C)ccc1OC` [Compound 562], `CCn1c(Oc2cccc(N3CCN(C)CC3)c2)nnc1[C@@H](C)NS(=O)(=O)c1ccc(Br)cc1C` [Compound 575] is higher in inhibition at 10 µM: 93.3% for the first, 104% for the second.

First: CCn1c(Oc2cccc(N3CCN(C)CC3)c2)nnc1[C@@H](C)NS(=O)(=O)c1ccc(C#N)cc1 [Compound 564]
Second: CCn1c(Oc2cccc(N3CCN(C)CC3)c2)nnc1[C@@H](C)NS(=O)(=O)c1ccc(C#N)cc1Cl [Compound 576]
The inhibition at 10 µM of the first is higher: 105% for the first, 81.4% for the second.

Going from `CCn1c(Oc2cccc(N3CCN(C)CC3)c2)nnc1[C@@H](C)NS(=O)(=O)c1ccc(F)cc1Cl` [Compound 570] to `CCc1cc(Br)ccc1S(=O)(=O)N[C@H](C)c1nnc(Oc2cccc(N3CCN(C)CC3)c2)n1CC` [Compound 574], the inhibition at 10 µM rises from 77.4% to 86.9%.
